# Results published in publication PMC6478823, “A suite of phenotypic assays to ensure pipeline diversity when prioritizing drug-like Cryptosporidium growth inhibitors” (Nature Communications, 2019).
# Values joined by “and” are separate entries in the source; they are usually repeats but may differ in a detail not shown here. Equal entries are not always repeated.
# Assays:
# C. parvum [1] = type: cell-based, Cryptosporidium parvum; conditions: compound at EC90; for Invasion Assay: Mean % Inhibition (parasites), Average: average of replicates; for Invasion Assay: Mean % Inhibition (parasites), Replicate 1a: single biological replicate 1; for Invasion Assay: Mean % Inhibition (parasites), Replicate 2a: single biological replicate 2
# [2] = system: C. parvum DMC1 expression; test: Sexual differentiation assay (DMC1 expression); type: cell-based, Cryptosporidium parvum; conditions: for Asexual to sexual differentiation: Mean % DMC1 inhibition (normalized to host nuclei), Average: average of replicates; for Asexual to sexual differentiation: Mean % DMC1 inhibition (normalized to host nuclei), Replicate 1a: single replicate 1; for Asexual to sexual differentiation: Mean % DMC1 inhibition (normalized to host nuclei), Replicate 2a: single replicate 2; for 48 - 72 h DMC1 (asexual to sexual conversion): Mean % DMC1 inhibition (normalized to host nuclei): replicates 1-3 in separate columns; for Asexual to sexual differentiation: Mean % DMC1 inhibition (normalized to host nuclei), Replicate 3a: single replicate 3
# Procedure, shortened: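 High-content microscopy of infected cells fixed at set times post-infection, stained with anti-DMC1 mAb 1H10G7, Vicia villosa lectin and Hoechst; lectin-positive parasites counted, then DMC1-positive.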
# C. parvum [3] = test: Egress, motility, reinvasion assay (PV ratio); conditions: compound at EC90; for Egress and Reinvasion Assay: Mean PV ratios (19.5h:6h), Average: average of replicates; for Egress and Reinvasion Assay: Mean PV ratios (19.5h:6h), Replicate 1a: single replicate 1; for Egress and Reinvasion Assay: Mean PV ratios (19.5h:6h), Replicate 2a: single replicate 2; for Egress and Reinvasion Assay: Mean PV ratios (19.5h:6h), Replicate 3a: single replicate 3; for Egress and Reinvasion Assay: Mean PV ratios (19.5h:6h), Replicate 4a: single replicate 4
# Procedure: For quantification of parasitophorous vacuoles over time, HCT-8 cells were grown to greater than 90% confluence in 384-well plates and infected with 11,000 oocysts after triggering excystation.
# C. parvum [4] = test: DNA replication assay (EdU incorporation); type: cell-based, Cryptosporidium parvum; conditions: compound at EC90; for DNA Synthesis Assay: Mean % Inhibition of EdU-labeling (normalized to parasite numbers), Average: average of replicates; for DNA Synthesis Assay: Mean % Inhibition of EdU-labeling (normalized to parasite numbers), Replicate 1: single replicate 1; for DNA Synthesis Assay: Mean % Inhibition of EdU-labeling (normalized to parasite numbers), Replicate 2: single replicate 2; for DNA Synthesis Assay: Mean % Inhibition of EdU-labeling (normalized to parasite numbers), Replicate 3: single replicate 3; for DNA Synthesis Assay: Mean % Inhibition of EdU-labeling (normalized to parasite numbers), Replicate 4: single replicate 4; for DNA Synthesis Assay: Mean % Inhibition of EdU-labeling (normalized to parasite numbers), Replicate 5: single replicate 5
# [5] = compound at asexual EC90, 48-72 h
Structure (SMILES),"Invasion Assay: Mean % Inhibition (parasites), Average (C. parvum [1]) [%]","Invasion Assay: Mean % Inhibition (parasites), Replicate 1a (C. parvum [1]) [%]","Invasion Assay: Mean % Inhibition (parasites), Replicate 2a (C. parvum [1]) [%]","Asexual to sexual differentiation: Mean % DMC1 inhibition (normalized to host nuclei), Average [2, 5] [%]","Asexual to sexual differentiation: Mean % DMC1 inhibition (normalized to host nuclei), Replicate 1a [2, 5] [%]","Asexual to sexual differentiation: Mean % DMC1 inhibition (normalized to host nuclei), Replicate 2a [2, 5] [%]","Egress and Reinvasion Assay: Mean PV ratios (19.5h:6h), Average (C. parvum [3])","Egress and Reinvasion Assay: Mean PV ratios (19.5h:6h), Replicate 1a (C. parvum [3])","Egress and Reinvasion Assay: Mean PV ratios (19.5h:6h), Replicate 2a (C. parvum [3])","DNA Synthesis Assay: Mean % Inhibition of EdU-labeling (normalized to parasite numbers), Average (C. parvum [4]) [%]","DNA Synthesis Assay: Mean % Inhibition of EdU-labeling (normalized to parasite numbers), Replicate 1 (C. parvum [4]) [%]","DNA Synthesis Assay: Mean % Inhibition of EdU-labeling (normalized to parasite numbers), Replicate 2 (C. parvum [4]) [%]","DNA Synthesis Assay: Mean % Inhibition of EdU-labeling (normalized to parasite numbers), Replicate 3 (C. parvum [4]) [%]","DNA Synthesis Assay: Mean % Inhibition of EdU-labeling (normalized to parasite numbers), Replicate 4 (C. parvum [4]) [%]","DNA Synthesis Assay: Mean % Inhibition of EdU-labeling (normalized to parasite numbers), Replicate 5 (C. parvum [4]) [%]","Egress and Reinvasion Assay: Mean PV ratios (19.5h:6h), Replicate 3a (C. parvum [3])","Egress and Reinvasion Assay: Mean PV ratios (19.5h:6h), Replicate 4a (C. parvum [3])","Asexual to sexual differentiation: Mean % DMC1 inhibition (normalized to host nuclei), Replicate 3a [2, 5] [%]",further results
C[C@H]1CCC[C@H](C[C@H]2Cc3cc(O)cc(O)c3C(=O)O2)O1 [Cladosporin],-6.64,5.41,-19,94.16,91.92,96.40,0.68,0.52,0.83,93.15,89.75,94.02,89.08,93.50,99.40,–,–,–,–
CC(C)/N=c1\cc2n(-c3ccc(Cl)cc3)c3ccccc3nc-2cc1Nc1ccc(Cl)cc1 [Clofazimine],66.45,65,68,89.18,91.44,86.93,0.77,1.03,1.03,88.58,99.92,100.00,87.22,73.51,82.28,0.51,0.49,–,–
O=C(Nc1ccc(Cl)cc1)N1CCN(c2ccc3nncn3n2)CC1 [D-1],-25.16,-22,-29,83.01,87.55,90.87,1.86,1.12,1.70,23.98,20.68,7.95,36.52,30.78,–,3.12,1.50,72.73,"48 - 72 h DMC1 (asexual to sexual conversion): Mean % DMC1 inhibition (normalized to host nuclei) ([2]; D-1 at log conc (µM) 0.16): -9.83% and -22.30% and 31.77%; 48 - 72 h DMC1 (asexual to sexual conversion): Mean % DMC1 inhibition (normalized to host nuclei) ([2]; D-1 at log conc (µM) 0.46): 54.19% and 44.15% and 54.54%; 48 - 72 h DMC1 (asexual to sexual conversion): Mean % DMC1 inhibition (normalized to host nuclei) ([2]; D-1 at log conc (µM) 0.58): 71.57% and 53.72% and 69.21%; 48 - 72 h DMC1 (asexual to sexual conversion): Mean % DMC1 inhibition (normalized to host nuclei) ([2]; D-1 at log conc (µM) 0.71): 84.32%; 48 - 72 h DMC1 (asexual to sexual conversion): Mean % DMC1 inhibition (normalized to host nuclei) ([2]; D-1 at log conc (µM) 1.18): 94.93% and 94.90% and 95.67%; 48 - 72 h DMC1 (asexual to sexual conversion): Mean % DMC1 inhibition (normalized to host nuclei) ([2]; D-1 at log conc (µM) 1.66): 95.75% and 98.23% and 93.36%; 48 - 72 h DMC1 (asexual to sexual conversion): Mean % DMC1 inhibition (normalized to host nuclei) ([2]; D-1 at log conc (µM) -0.14): 2.15% and -53.03% and -30.95%; 48 - 72 h DMC1 (asexual to sexual conversion): Mean % DMC1 inhibition (normalized to host nuclei) ([2]; D-1 at log conc (µM) -0.62): -16.25% and -49.91% and -40.61%; 48 - 72 h DMC1 (asexual to sexual conversion): Mean % DMC1 inhibition (normalized to host nuclei) ([2]; D-1 at log conc (µM) -1.10): -18.85% and -40.36% and -14.22%; activity in the DMC1 (sexual development) assay relative to asexual assay ([2]; compound added at 48 h, read at 72 h, result in words): equal potency before and after 48 h; Asexual to sexual differentiation: Mean % DMC1 inhibition (normalized to host nuclei), Replicate 4a ([2]; compound at asexual EC90, 48-72 h, single replicate 4): 66.31%; Asexual to sexual differentiation: Mean % DMC1 inhibition (normalized to host nuclei), Replicate 5a ([2]; compound at asexual EC90, 48-72 h, single replicate 5): 89.27%; Asexual to sexual differentiation: Mean % DMC1 inhibition (normalized to host nuclei), Replicate 6a ([2]; compound at asexual EC90, 48-72 h, single replicate 6): 91.32%; EC50 ([2]; inhibition of DMC1 expression from 48 to 72 h, range in brackets, read-out: 48 − 72 h DMC1 (asexual to sexual conversion): EC50): 2.4 µM"
O=C(Nc1ccc(Cl)c(Cl)c1)N1CCN(c2ccc3nncn3n2)CC1 [D-28],-13.23,-5,-22,81.40,86.90,86.80,1.28,1.01,1.19,3.38,14.86,-8.10,–,–,–,1.91,1.01,70.51,–
CN(C)S(=O)(=O)c1ccc(C(=O)N2CCN(c3ccc4nncn4n3)CC2)cc1 [D-44],-11.48,-25,-14,74.35,86.32,62.37,2.21,2.22,2.32,12.07,29.16,10.90,-3.84,–,–,1.73,2.75,–,"Invasion Assay: Mean % Inhibition (parasites), Replicate 3a (C. parvum [1]; single biological replicate 3): 2%; Invasion Assay: Mean % Inhibition (parasites), Replicate 4a (C. parvum [1]; single biological replicate 4): -9%; Egress and Reinvasion Assay: Mean PV ratios (19.5h:6h), Replicate 5a (C. parvum [3]; single replicate 5): 1.96; Egress and Reinvasion Assay: Mean PV ratios (19.5h:6h), Replicate 6a (C. parvum [3]; single replicate 6): 2.29"
CC(=O)O[C@@]12CO[C@@H]1C[C@H](O)[C@@]1(C)C(=O)[C@H](O)C3=C(C)[C@@H](OC(=O)[C@H](O)[C@@H](NC(=O)OC(C)(C)C)c4ccccc4)C[C@@](O)([C@@H](OC(=O)c4ccccc4)[C@H]21)C3(C)C [Docetaxel],-8.63,-1.34,-16,37.07,34.13,40.00,1.76,1.96,2.25,16.66,33.42,-0.10,–,–,–,1.23,1.60,–,–
